{"source": "patent US12102689B2", "about": "“Anti-CD22 antibody-maytansine conjugates and methods of use thereof” (R.P. Scherer Technologies, LLC, priority 2015, dated 2024)", "type_in_all_cases": "cell-based", "key": {"MDR1+ WSU-DLCL2 cells": {"tested_on": "MDR1+ WSU-DLCL2 cells", "test": "In vitro cytotoxicity assay on MDR1-expressing cells", "procedure": "(§1) MDR1 (ABCB1) cDNA was obtained from Sino Biological and cloned into a pEF plasmid with a hygromycin selection marker. An AMAXA Nucleofector™ instrument was used to electroporate Ramos (ATCC CRL-1923) and WSU-DLCL2 (DSMZ ACC 575) cells according to the manufacturer's instructions. After selection with hygromycin (Invitrogen 10687010), the pools were enriched with paclitaxel treatment (25 nM for up to 10 days) to further select cells with functional MDR1. The resulting cells were maintained under hygromycin selection in RPMI (Gibco 21870-092) supplemented with 10% fetal bovine serum (FBS) and 1× GlutaMax (Gibco 35050-079).\n(§2) Cell lines were plated in 96-well plates (Costar 3610) at a density of 5×10^4 cells/well in 100 μL of growth media and allowed to rest for 5 h. Serial dilution of test samples was performed in RPMI at 6× the final concentration and 20 μL was added to the cells. After incubation at 37° C. with 5% CO2 for 5 days, viability was measured using a Promega CellTiter 96® AQueous One Solution Cell Proliferation Assay (G3581) according to the manufacturer's instructions. GI50 curves were calculated in GraphPad Prism using the ADC's drug-to-antibody ratio (DAR) value to normalize the dose to the payload concentration."}, "MDR1+ Ramos cells": {"tested_on": "MDR1+ Ramos cells", "test": "In vitro cytotoxicity assay on MDR1-expressing cells", "settings": "MDR1+ Ramos vs wild-type", "procedure": "as §1, §2"}, "Ramos cells": {"tested_on": "Ramos cells", "test": "In vitro cytotoxicity (Cell Titer-Glo, 5 d)", "settings": "Homo sapiens, 120 h", "procedure": "(§3) The CD22-positive B-cell lymphoma cell lines, Ramos and WSU-DLCL2, were obtained from the ATCC and DSMZ cell banks, respectively. The cells were maintained in RPMI-1640 medium (Cellgro, Manassas, VA) supplemented with 10% fetal bovine serum (Invitrogen, Grand Island, NY) and Glutamax (Invitrogen). 24 h prior to plating, cells were passaged to ensure log-phase growth. On the day of plating, 5000 cells/well were seeded onto 96-well plates in 90 μL normal growth medium supplemented with 10 IU penicillin and 10 μg/mL streptomycin (Cellgro). Cells were treated at various concentrations with 10 μL of diluted analytes, and the plates were incubated at 37° C. in an atmosphere of 5% CO2. After 5 d, 100 μL/well of Cell Titer-Glo reagent (Promega, Madison, WI) was added, and luminescence was measured using a Molecular Devices SpectraMax M5 plate reader. GraphPad Prism software was used for data analysis."}, "WSU-DLCL2 cells": {"tested_on": "WSU-DLCL2 cells", "test": "In vitro cytotoxicity (Cell Titer-Glo, 5 d)", "settings": "Homo sapiens, WSUDLCL2, 120 h", "procedure": "as §3"}}, "note": "pIC50: −log10 of the molar value."}
{"smiles": "COc1cc2cc(c1Cl)N(C)C(=O)C[C@H](OC(=O)[C@H](C)N(C)C(C)=O)[C@]1(C)O[C@H]1[C@H](C)[C@@H]1C[C@@](O)(NC(=O)O1)[C@H](OC)/C=C/C=C(\\C)C2", "note": "[free maytansine, maytansine]", "values": [{"measurement": "potency on cotreatment with cyclosporin (MDR1 inhibitor)", "setting": "MDR1+ WSU-DLCL2 cells; MDR1+ WSU-DLCL2 cells plus cyclosporin", "value": "restored the original potency"}, {"measurement": "fold less efficacious in MDR1-expressing cells", "setting": "MDR1+ WSU-DLCL2 cells; MDR1+ WSU-DLCL2 vs wild-type", "value": "~10", "unit": "fold"}, {"measurement": "fold less efficacious in MDR1-expressing cells", "setting": "MDR1+ Ramos cells", "value": "~10", "unit": "fold"}, {"measurement": "pIC50", "setting": "Ramos cells", "value": 10.40}, {"measurement": "pIC50", "setting": "WSU-DLCL2 cells", "value": 10.07}]}
